Patent US9023789B2, “Amylin analogs and pharmaceutical compositions thereof” (Novo Nordisk A/S, priority 2012, dated 2015)
≈ marks a conversion by molar mass, not a printed value. Where two headings read alike, the source gives them in different places. Numbered stars: 1 amine (or outer) side, 2 acyl side, 3 side chain; on linkers, the order of the positions; unused ones are H or OH. Bridge positions count the residues as written; N and C are the ends. Side chains are listed from the residue outwards. Peptide text beside a SMILES is read from it. * marks the point of attachment. C20 diacid = O=C(O)CCCCCCCCCCCCCCCCCCC(=O)*; γGlu = O=C(O)[C@H](CCC(=O)[*:2])N[*:1]; AEEA = NCCOCCOCC(=O)O

How the values were obtained:
[1] = ASSAY (III) ThT fibrillation assay for physical stability; type: physicochemical
Procedure, shortened: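 Physical stability scored by ThT fluorescence (444 nm excitation, 485 nm emission) tracked every 20 min during 37 °C incubation with 960 rpm shaking, ThT at 1 μM final. Values are replicate means with SD at chosen times; HPLC against pramlintide standard gives initial and post-assay soluble concentrations.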

[2] = ASSAY (IV) determination of solubility; type: physicochemical
Procedure, shortened: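 Samples of polypeptide, prepared from a water stock at […] and diluted 1:1 into 100 mM buffers spanning pH 3.0 to 8.0, stood 18 hours at room temperature. Polypeptide concentration was then determined by UPLC following centrifugation.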

[3] = molecular target: T1, rat calcitonin receptor (Rattus norvegicus, UniProt P32214); experiment: ASSAY (VIII) binding to the rat calcitonin receptor; conditions: Table 7, read-out: rCTR bind IC50
T1 construct: expressed in transfected cells; host or cells: BHK tk'ts 13 (transient, FuGENE 6), membranes
T1 sequence (P32214 25-479 isoform P32214-2 limits assumed): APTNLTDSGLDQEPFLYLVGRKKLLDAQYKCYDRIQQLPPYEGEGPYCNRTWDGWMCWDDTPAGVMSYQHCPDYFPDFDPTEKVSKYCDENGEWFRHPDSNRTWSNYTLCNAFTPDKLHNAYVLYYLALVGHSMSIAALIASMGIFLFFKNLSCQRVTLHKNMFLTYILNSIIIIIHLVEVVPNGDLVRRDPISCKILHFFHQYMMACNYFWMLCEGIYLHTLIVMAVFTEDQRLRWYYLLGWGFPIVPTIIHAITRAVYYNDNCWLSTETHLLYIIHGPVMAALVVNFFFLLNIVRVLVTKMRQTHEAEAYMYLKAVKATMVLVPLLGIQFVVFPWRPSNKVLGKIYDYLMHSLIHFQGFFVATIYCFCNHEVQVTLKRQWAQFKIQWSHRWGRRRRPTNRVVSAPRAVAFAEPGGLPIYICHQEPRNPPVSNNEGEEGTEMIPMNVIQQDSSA
Procedure, shortened: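 Cell membranes for binding came from BHK tk′ts 13 cells harvested approximately 48 hours after transient transfection with the rat receptor.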

[4] = bistrispropane buffer, pH 6.5, read-out: Solubility pH 6.5 Concentration
[5] = bistrispropane buffer, pH 7.5, read-out: Solubility pH 7.5 Concentration
[6] = bistrispropane buffer, pH 6.0, read-out: Solubility pH 6.0 Concentration
[7] = bistrispropane buffer, pH 7.0, read-out: Solubility pH 7.0 Concentration
[8] = bistrispropane buffer, pH 8.0, read-out: Solubility pH 8.0 Concentration
[9] = glycylglycine buffer, pH 3.0, read-out: Solubility pH 3.0 Concentration
[10] = glycylglycine buffer, pH 4.0, read-out: Solubility pH 4.0 Concentration
[11] = glycylglycine buffer, pH 5.0, read-out: Solubility pH 5.0 Concentration

| ThT pH 4.0 lag time (h) [1] [h] | solubility at 18 h [2, 4] [µM] | solubility at 18 h [2, 5] [µM] | solubility at 18 h [2, 6] [µM] | solubility at 18 h [2, 7] [µM] | solubility at 18 h [2, 8] [µM] | solubility at 18 h [2, 9] [µM] | solubility at 18 h [2, 10] [µM] | solubility at 18 h [2, 11] [µM] | IC50 [3] [nM] | Solubility pH 6.5 Concentration ([2]; pH 6.5 (Table 9a)) | Structure (SMILES) |
| --- | --- | --- | --- | --- | --- | --- | --- | --- | --- | --- | --- |
| 17 | ≥ 200 | 94 (≈ 422 µg/mL) | ≥ 200 | 154 (≈ 691 µg/mL) | 120 (≈ 539 µg/mL) | ≥ 200 | ≥ 200 | ≥ 200 | 216 | – | CC[C@H](C)[C@H](NC(=O)[C@H](C)NC(=O)CNC(=O)[C@H](Cc1ccccc1)NC(=O)[C@H](CC(N)=O)NC(=O)[C@@H]1CCCN1C(=O)[C@H](CO)NC(=O)[C@H](CO)NC(=O)[C@H](Cc1c[nH]cn1)NC(=O)[C@H](CCCNC(=N)N)NC(=O)[C@H](CC(C)C)NC(=O)[C@H](Cc1ccccc1)NC(=O)[C@H](Cc1c[nH]cn1)NC(=O)[C@H](C)NC(=O)[C@H](CC(C)C)NC(=O)[C@H](CCCNC(=N)N)NC(=O)[C@H](CCC(N)=O)NC(=O)[C@@H](NC(=O)[C@H](C)NC(=O)[C@@H]1CSSC[C@H](NC(=O)[C@H](CCCNC(=N)N)NC(=O)CNC(=O)CC[C@H](NC(=O)CCCCCCCCCCCCCCCCCCC(=O)O)C(=O)O)C(=O)N[C@@H](CC(N)=O)C(=O)N[C@@H]([C@@H](C)O)C(=O)N[C@@H](C)C(=O)N[C@@H]([C@@H](C)O)C(=O)N1)[C@@H](C)O)C(=O)N1CCC[C@H]1C(=O)N[C@@H](CO)C(=O)N[C@@H](CO)C(=O)N[C@H](C(=O)N[C@@H](CC(N)=O)C(=O)N[C@H](C(=O)NCC(=O)N[C@@H](CO)C(=O)N[C@@H](CC(N)=O)C(=O)N[C@H](C(=O)N[C@@H](Cc1ccc(O)cc1)C(N)=O)[C@@H](C)O)C(C)C)[C@@H](C)O [Example 99] ({C20 diacid-γGlu}-GRCNTATCATQRLAHFLRHSSPNFGAIPSSTNVGSNTY-NH2; disulfide 3-8) |
| 12 | ≥ 200 | ≥ 200 | ≥ 200 | ≥ 200 | ≥ 200 | ≥ 200 | ≥ 200 | ≥ 200 | 143 | – | CC[C@H](C)[C@H](NC(=O)[C@H](C)NC(=O)CNC(=O)[C@H](Cc1ccccc1)NC(=O)[C@H](CC(N)=O)NC(=O)[C@@H]1CCCN1C(=O)[C@H](CO)NC(=O)[C@H](CO)NC(=O)[C@H](Cc1c[nH]cn1)NC(=O)[C@H](CCCNC(=N)N)NC(=O)[C@H](CC(C)C)NC(=O)[C@H](Cc1ccccc1)NC(=O)[C@H](CCCNC(=N)N)NC(=O)[C@H](C)NC(=O)[C@H](CC(C)C)NC(=O)[C@H](CCCNC(=N)N)NC(=O)[C@H](CCC(N)=O)NC(=O)[C@@H](NC(=O)[C@H](C)NC(=O)[C@@H]1CSSC[C@H](NC(=O)[C@@H](N)CCCCNC(=O)COCCOCCNC(=O)CC[C@H](NC(=O)CCCCCCCCCCCCCCCCCCC(=O)O)C(=O)O)C(=O)N[C@@H](CC(N)=O)C(=O)N[C@@H]([C@@H](C)O)C(=O)N[C@@H](C)C(=O)N[C@@H]([C@@H](C)O)C(=O)N1)[C@@H](C)O)C(=O)N1CCC[C@H]1C(=O)N[C@@H](CO)C(=O)N[C@@H](CO)C(=O)N[C@H](C(=O)N[C@@H](CC(N)=O)C(=O)N[C@H](C(=O)NCC(=O)N[C@@H](CO)C(=O)N[C@@H](CC(N)=O)C(=O)N[C@H](C(=O)N[C@@H](Cc1ccc(O)cc1)C(N)=O)[C@@H](C)O)C(C)C)[C@@H](C)O [Example 82] (H-K([AEEA-γGlu-C20 diacid])CNTATCATQRLARFLRHSSPNFGAIPSSTNVGSNTY-NH2; disulfide 2-7; N-terminus assumed) |
| 22 | ≥ 200 | ≥ 200 | ≥ 200 | ≥ 200 | ≥ 200 | ≥ 200 | ≥ 200 | ≥ 200 | 46.8 | – | CC[C@H](C)[C@H](NC(=O)[C@H](C)NC(=O)CNC(=O)[C@H](Cc1ccccc1)NC(=O)[C@H](CC(N)=O)NC(=O)[C@@H]1CCCN1C(=O)[C@H](CO)NC(=O)[C@H](CO)NC(=O)[C@H](Cc1c[nH]cn1)NC(=O)[C@H](CCCNC(=N)N)NC(=O)[C@H](CC(C)C)NC(=O)[C@H](Cc1ccccc1)NC(=O)[C@H](Cc1c[nH]cn1)NC(=O)[C@H](C)NC(=O)[C@H](CC(C)C)NC(=O)[C@H](CCCNC(=N)N)NC(=O)[C@H](CCC(N)=O)NC(=O)[C@@H](NC(=O)[C@H](C)NC(=O)[C@@H]1CSSC[C@H](NC(=O)[C@@H](N)CCCCNC(=O)COCCOCCNC(=O)CC[C@H](NC(=O)CCCCCCCCCCCCCCCCCCC(=O)O)C(=O)O)C(=O)N[C@@H](CC(N)=O)C(=O)N[C@@H]([C@@H](C)O)C(=O)N[C@@H](C)C(=O)N[C@@H]([C@@H](C)O)C(=O)N1)[C@@H](C)O)C(=O)N1CCC[C@H]1C(=O)N[C@@H](CO)C(=O)N[C@@H](CO)C(=O)N[C@H](C(=O)N[C@@H](CC(N)=O)C(=O)N[C@H](C(=O)NCC(=O)N[C@@H](CO)C(=O)N[C@@H](CC(N)=O)C(=O)N[C@H](C(=O)N[C@@H](Cc1ccc(O)cc1)C(N)=O)[C@@H](C)O)C(C)C)[C@@H](C)O [Example 69] (H-K([AEEA-γGlu-C20 diacid])CNTATCATQRLAHFLRHSSPNFGAIPSSTNVGSNTY-NH2; disulfide 2-7; N-terminus assumed) |
| 33 | ≥ 200 | 26 (≈ 118 µg/mL) | ≥ 200 | 109 (≈ 495 µg/mL) | 31 (≈ 141 µg/mL) | ≥ 200 | ≥ 200 | – | 311 | ≧200 μM | CC[C@H](C)[C@H](NC(=O)[C@H](C)NC(=O)CNC(=O)[C@H](Cc1ccccc1)NC(=O)[C@H](CC(N)=O)NC(=O)[C@@H]1CCCN1C(=O)[C@H](CO)NC(=O)[C@H](CO)NC(=O)[C@H](Cc1c[nH]cn1)NC(=O)[C@H](CCCNC(=N)N)NC(=O)[C@H](CC(C)C)NC(=O)[C@H](Cc1ccccc1)NC(=O)[C@H](Cc1c[nH]cn1)NC(=O)[C@H](C)NC(=O)[C@H](CC(C)C)NC(=O)[C@H](CCCNC(=N)N)NC(=O)[C@H](CCC(N)=O)NC(=O)[C@@H](NC(=O)[C@H](C)NC(=O)[C@@H]1CSSC[C@H](NC(=O)[C@H](CCCNC(=N)N)NC(=O)CNC(=O)CC[C@H](NC(=O)CCCCCCCCCCCCCCCCCCC(=O)O)C(=O)O)C(=O)N[C@@H](CC(N)=O)C(=O)N[C@@H]([C@@H](C)O)C(=O)N[C@@H](C)C(=O)N[C@@H]([C@@H](C)O)C(=O)N1)[C@@H](C)O)C(=O)N1CCC[C@H]1C(=O)N[C@@H](CO)C(=O)N[C@@H](CO)C(=O)N[C@H](C(=O)N[C@@H](CC(N)=O)C(=O)N[C@H](C(=O)NCC(=O)N[C@@H](Cc1c[nH]cn1)C(=O)N[C@@H](CC(N)=O)C(=O)N[C@H](C(=O)N[C@@H](Cc1ccc(O)cc1)C(N)=O)[C@@H](C)O)C(C)C)[C@@H](C)O [Example 100] ({C20 diacid-γGlu}-GRCNTATCATQRLAHFLRHSSPNFGAIPSSTNVGHNTY-NH2; disulfide 3-8 (inferred)) |
